{"source": "patent US20080280837A1", "about": "“Biologically Active Compounds with Anti-Angiogenic Properties” (priority 2004, published 2008)", "data": [{"molecular_target": "T1, Human SST5 somatostatin receptor (SSTR5) (Homo sapiens, UniProt P35346)", "T1 construct": "expressed in transfected cells; host or cells: HEK-293 EBNA", "T1 sequence (P35346 whole entry)": "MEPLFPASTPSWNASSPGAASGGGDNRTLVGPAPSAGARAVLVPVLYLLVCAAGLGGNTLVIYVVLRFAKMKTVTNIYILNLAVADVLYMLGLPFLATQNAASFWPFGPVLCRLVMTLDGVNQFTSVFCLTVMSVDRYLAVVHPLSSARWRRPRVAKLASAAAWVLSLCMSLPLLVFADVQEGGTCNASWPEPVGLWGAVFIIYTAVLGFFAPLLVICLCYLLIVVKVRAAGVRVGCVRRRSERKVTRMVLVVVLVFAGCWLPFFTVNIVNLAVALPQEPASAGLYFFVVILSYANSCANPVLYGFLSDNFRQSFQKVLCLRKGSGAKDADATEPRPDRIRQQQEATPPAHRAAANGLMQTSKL", "experiment": "Filter plate assay for SST5 receptor, displacement of [125I]SST-14", "type": "binding", "settings": "0.5 uM", "protocol": "(§1) Receptor membrane preparations containing the desired cloned receptor (for example cloned human somatostatin receptor subtype 5, SSTR5) and radio-labeled ligand (for example 3-[^125I]iodotyrosyl^11 Somatostatin-14)) were diluted at the concentration required for testing and according to the specific parameters associated with the selected receptor-ligand combination, including receptor Bmax, ligand Kd and any other parameters necessary to optimize the experimental conditions. When tested for competition activity to the reference ligand, “compound 1” was mixed with membrane suspension and the radiolabeled reference ligand (with or without an excess of cold ligand to the receptor for determination of non-specific binding) and incubated at the temperature required by internal standard operating procedures. Following incubation, the binding reaction was stopped by the addition of ice-cold washing buffer and filtered on appropriate filters, which are then counted. Data analysis and curve-fitting was performed with XLfit (IDBS).\n(§2) 10 mM solutions of test compounds in 100% DMSO were prepared. ˜160 μl was used for each dilution (20 μl/well in triplicate).\n(§3) A 1.25 mM assay stock was prepared by making a 1:8 dilution of the 10 mM solution. (To 30 μL of the 10 mM solution was added 210 μL milli-Q H2O. A 1:5 dilution series in milli-Q H2O was then prepared.\n(§4) Assays were performed in triplicate at each concentration within the 1:5 dilution series: 250 μM, 50 μM, 10 μM, […], 0.4 μM, 0.08 μM, 0.016 μM, 0.0032 μM, etc. (for SST4 assay) and 125 μM, 10 μM, 2 μM, 1 μM, 0.5 μM, etc (for SST5 assay).\n(§5) Human SST5 somatostatin receptor was transfected into HEK-293 EBNA cells. Membranes were suspended in assay buffer (50 mM Tris-HCl, 1 mM EGTA, 5 mM MgCl2, 10% sucrose, pH 7.5).\n(§6) After thawing the frozen receptor preparation rapidly, receptors were diluted with binding buffer, homogenized, and kept on ice. • 1. Use Multiscreen glass fiber filter plates (Millipore, Cat No MAFCNOB10) precoated with o.5% PEI for ˜2 hr at 4° C. Before use add 200 μl/well assay buffer and filter using Multiscreen Separation System. • 2. Incubate 5.5 μg of membranes (40 μl of a 1:40 dilution), buffer and [^125I]SST-14 (4 nM, ˜80 000 cpm, 2000 Ci/mmol) in a total volume of 200 μl for 60 min at 25° C. […] Prepare serial dilutions (1:5) of compounds, as described above and instead of adding SST-14 in well, add 20 μl of compounds (Table 1). • 3. Filter using Multiscreen Separation System with 5×0.2 ml ice-cold Assay buffer. • 4. Remove the plastic underdrain and dry plate in oven for 1 hr at 40° C. • 5. Seal tape to the bottom of the plate. • 6. Add 50 μl/well scintillant (Supermix, Wallac, Cat No 1200-439). • 7. Seal and count in the BJET, program 2.\n(§7) In primary screening experiments compounds were tested in duplicate for a particular concentration.", "units": {"SSTR5 Inhib 0.5 uM % (inhibition of binding of SST-14 to SSTR5)": "%"}, "values": [{"smiles": "COC[C@H]1OC(OCc2ccc3ccccc3c2)[C@H](NC(=O)CCCNC(=N)N)[C@H](OCc2ccc(Cl)cc2)[C@@H]1O", "note": "(stereo partly shown) [Compound 17]", "SSTR5 Inhib 0.5 uM % (inhibition of binding of SST-14 to SSTR5)": 84}, {"smiles": "COC[C@H]1OC(OCc2ccccc2)[C@H](NC(=O)CCN)[C@H](OCc2ccc3ccccc3c2)[C@@H]1O", "note": "(stereo partly shown) [Compound 18]", "SSTR5 Inhib 0.5 uM % (inhibition of binding of SST-14 to SSTR5)": 90}, {"smiles": "COC[C@H]1OC(OCc2ccc(Cl)cc2)[C@H](NC(=O)CCCN)[C@@H](OCc2ccc3ccccc3c2)[C@@H]1O", "note": "(stereo partly shown) [Compound 19]", "SSTR5 Inhib 0.5 uM % (inhibition of binding of SST-14 to SSTR5)": 88}, {"smiles": "COC[C@H]1OC(OCc2ccc3ccccc3c2)[C@H](NC(=O)CCCN)[C@H](OCc2ccc(Cl)cc2)[C@@H]1O", "note": "(stereo partly shown) [Compound 20]", "SSTR5 Inhib 0.5 uM % (inhibition of binding of SST-14 to SSTR5)": 76}, {"smiles": "COC[C@H]1OC(OCc2ccc3ccccc3c2)[C@H](NC(=O)CCN)[C@H](OCc2ccccc2)[C@@H]1O", "note": "(stereo partly shown) [Compound 21]", "SSTR5 Inhib 0.5 uM % (inhibition of binding of SST-14 to SSTR5)": 81}, {"smiles": "COC[C@H]1OC(OCc2ccccc2)[C@H](NC(=O)CCN)[C@H](OCc2ccc(Cl)cc2)[C@@H]1O", "note": "(stereo partly shown) [Compound 22]", "SSTR5 Inhib 0.5 uM % (inhibition of binding of SST-14 to SSTR5)": 80}, {"smiles": "COC[C@H]1OC(OCc2ccc3ccccc3c2)[C@H](NC(=O)CCCNC(=N)N)[C@@H](OCc2ccc(Cl)cc2)[C@@H]1O", "note": "(stereo partly shown) [Compound 23]", "SSTR5 Inhib 0.5 uM % (inhibition of binding of SST-14 to SSTR5)": 80}, {"smiles": "COC[C@H]1OC(OCc2ccc(Cl)cc2)[C@H](NC(=O)CCCN)[C@H](OCc2ccc3ccccc3c2)[C@@H]1O", "note": "(stereo partly shown) [Compound 24]", "SSTR5 Inhib 0.5 uM % (inhibition of binding of SST-14 to SSTR5)": 67}, {"smiles": "COC[C@H]1OC(OCc2ccc3ccccc3c2)[C@H](NC(=O)CCCN)[C@@H](OCc2ccc(-c3ccccc3)cc2)[C@@H]1O", "note": "(stereo partly shown) [Compound 25]", "SSTR5 Inhib 0.5 uM % (inhibition of binding of SST-14 to SSTR5)": 77}, {"smiles": "COC[C@H]1OC(OCc2ccc3ccccc3c2)[C@H](NC(=O)CCN)[C@H](OCc2ccc(-c3ccccc3)cc2)[C@@H]1O", "note": "(stereo partly shown) [Compound 26]", "SSTR5 Inhib 0.5 uM % (inhibition of binding of SST-14 to SSTR5)": 77}, {"smiles": "COC[C@H]1OC(OCc2ccc(Cl)cc2)[C@H](NC(=O)CCCN)[C@H](OCc2ccc(-c3ccccc3)cc2)[C@@H]1O", "note": "(stereo partly shown) [Compound 27]", "SSTR5 Inhib 0.5 uM % (inhibition of binding of SST-14 to SSTR5)": 74}, {"smiles": "COC[C@H]1OC(OCCc2ccccc2)[C@H](NC(=O)CCCN)[C@H](OCc2ccc3ccccc3c2)[C@@H]1O", "note": "(stereo partly shown) [Compound 28]", "SSTR5 Inhib 0.5 uM % (inhibition of binding of SST-14 to SSTR5)": 70}, {"smiles": "COC[C@H]1OC(OCc2ccc3ccccc3c2)[C@H](NC(=O)CCCN)[C@@H](OCc2ccc(-c3ccccc3)cc2)[C@@H]1O", "note": "(stereo partly shown) [Compound 29]", "SSTR5 Inhib 0.5 uM % (inhibition of binding of SST-14 to SSTR5)": 77}, {"smiles": "COC[C@H]1OC(OCc2ccc(Cl)cc2)[C@H](NC(=O)CCCN)[C@@H](OCc2ccc(-c3ccccc3)cc2)[C@@H]1O", "note": "(stereo partly shown) [Compound 30]", "SSTR5 Inhib 0.5 uM % (inhibition of binding of SST-14 to SSTR5)": 80}, {"smiles": "COC[C@H]1OC(OCc2ccc(-c3ccccc3)cc2)[C@H](NC(=O)CCCN)[C@@H](OCc2ccc(-c3ccccc3)cc2)[C@@H]1O", "note": "(stereo partly shown) [Compound 31]", "SSTR5 Inhib 0.5 uM % (inhibition of binding of SST-14 to SSTR5)": 85}, {"smiles": "COC[C@H]1OC(OCc2ccccc2)[C@H](NC(=O)CCCN)[C@@H](OCc2ccc3ccccc3c2)[C@@H]1O", "note": "(stereo partly shown) [Compound 32]", "SSTR5 Inhib 0.5 uM % (inhibition of binding of SST-14 to SSTR5)": 80}, {"smiles": "COC[C@H]1OC(OCc2ccc(Cl)cc2)[C@H](NC(=O)CCCN)[C@@H](OCc2ccc(Cl)cc2)[C@@H]1O", "note": "(stereo partly shown) [Compound 33]", "SSTR5 Inhib 0.5 uM % (inhibition of binding of SST-14 to SSTR5)": 68}]}, {"molecular_target": "T1, Human SST5 somatostatin receptor (SSTR5)", "experiment": "Filter plate assay for SST5 receptor, displacement of [125I]SST-14", "type": "binding", "settings": "10 uM", "protocol": "as §1, §2, §3, §4, §5, §6, §7", "units": {"SSTR5 Inhib 10 uM % (inhibition of binding of SST-14 to SSTR5)": "%"}, "values": [{"smiles": "COC[C@H]1OC(OCc2ccc3ccccc3c2)[C@H](NC(=O)CCCNC(=N)N)[C@H](OCc2ccc(Cl)cc2)[C@@H]1O", "note": "(stereo partly shown) [Compound 17]", "SSTR5 Inhib 10 uM % (inhibition of binding of SST-14 to SSTR5)": 98}, {"smiles": "COC[C@H]1OC(OCc2ccccc2)[C@H](NC(=O)CCN)[C@H](OCc2ccc3ccccc3c2)[C@@H]1O", "note": "(stereo partly shown) [Compound 18]", "SSTR5 Inhib 10 uM % (inhibition of binding of SST-14 to SSTR5)": 98}, {"smiles": "COC[C@H]1OC(OCc2ccc(Cl)cc2)[C@H](NC(=O)CCCN)[C@@H](OCc2ccc3ccccc3c2)[C@@H]1O", "note": "(stereo partly shown) [Compound 19]", "SSTR5 Inhib 10 uM % (inhibition of binding of SST-14 to SSTR5)": 98}, {"smiles": "COC[C@H]1OC(OCc2ccc3ccccc3c2)[C@H](NC(=O)CCCN)[C@H](OCc2ccc(Cl)cc2)[C@@H]1O", "note": "(stereo partly shown) [Compound 20]", "SSTR5 Inhib 10 uM % (inhibition of binding of SST-14 to SSTR5)": 97}, {"smiles": "COC[C@H]1OC(OCc2ccc3ccccc3c2)[C@H](NC(=O)CCN)[C@H](OCc2ccccc2)[C@@H]1O", "note": "(stereo partly shown) [Compound 21]", "SSTR5 Inhib 10 uM % (inhibition of binding of SST-14 to SSTR5)": 97}, {"smiles": "COC[C@H]1OC(OCc2ccccc2)[C@H](NC(=O)CCN)[C@H](OCc2ccc(Cl)cc2)[C@@H]1O", "note": "(stereo partly shown) [Compound 22]", "SSTR5 Inhib 10 uM % (inhibition of binding of SST-14 to SSTR5)": 96}, {"smiles": "COC[C@H]1OC(OCc2ccc3ccccc3c2)[C@H](NC(=O)CCCNC(=N)N)[C@@H](OCc2ccc(Cl)cc2)[C@@H]1O", "note": "(stereo partly shown) [Compound 23]", "SSTR5 Inhib 10 uM % (inhibition of binding of SST-14 to SSTR5)": 96}, {"smiles": "COC[C@H]1OC(OCc2ccc(Cl)cc2)[C@H](NC(=O)CCCN)[C@H](OCc2ccc3ccccc3c2)[C@@H]1O", "note": "(stereo partly shown) [Compound 24]", "SSTR5 Inhib 10 uM % (inhibition of binding of SST-14 to SSTR5)": 96}, {"smiles": "COC[C@H]1OC(OCc2ccc3ccccc3c2)[C@H](NC(=O)CCCN)[C@@H](OCc2ccc(-c3ccccc3)cc2)[C@@H]1O", "note": "(stereo partly shown) [Compound 25]", "SSTR5 Inhib 10 uM % (inhibition of binding of SST-14 to SSTR5)": 96}, {"smiles": "COC[C@H]1OC(OCc2ccc3ccccc3c2)[C@H](NC(=O)CCN)[C@H](OCc2ccc(-c3ccccc3)cc2)[C@@H]1O", "note": "(stereo partly shown) [Compound 26]", "SSTR5 Inhib 10 uM % (inhibition of binding of SST-14 to SSTR5)": 96}, {"smiles": "COC[C@H]1OC(OCc2ccc(Cl)cc2)[C@H](NC(=O)CCCN)[C@H](OCc2ccc(-c3ccccc3)cc2)[C@@H]1O", "note": "(stereo partly shown) [Compound 27]", "SSTR5 Inhib 10 uM % (inhibition of binding of SST-14 to SSTR5)": 96}, {"smiles": "COC[C@H]1OC(OCCc2ccccc2)[C@H](NC(=O)CCCN)[C@H](OCc2ccc3ccccc3c2)[C@@H]1O", "note": "(stereo partly shown) [Compound 28]", "SSTR5 Inhib 10 uM % (inhibition of binding of SST-14 to SSTR5)": 96}, {"smiles": "COC[C@H]1OC(OCc2ccc3ccccc3c2)[C@H](NC(=O)CCCN)[C@@H](OCc2ccc(-c3ccccc3)cc2)[C@@H]1O", "note": "(stereo partly shown) [Compound 29]", "SSTR5 Inhib 10 uM % (inhibition of binding of SST-14 to SSTR5)": 96}, {"smiles": "COC[C@H]1OC(OCc2ccc(Cl)cc2)[C@H](NC(=O)CCCN)[C@@H](OCc2ccc(-c3ccccc3)cc2)[C@@H]1O", "note": "(stereo partly shown) [Compound 30]", "SSTR5 Inhib 10 uM % (inhibition of binding of SST-14 to SSTR5)": 96}, {"smiles": "COC[C@H]1OC(OCc2ccc(-c3ccccc3)cc2)[C@H](NC(=O)CCCN)[C@@H](OCc2ccc(-c3ccccc3)cc2)[C@@H]1O", "note": "(stereo partly shown) [Compound 31]", "SSTR5 Inhib 10 uM % (inhibition of binding of SST-14 to SSTR5)": 96}, {"smiles": "COC[C@H]1OC(OCc2ccccc2)[C@H](NC(=O)CCCN)[C@@H](OCc2ccc3ccccc3c2)[C@@H]1O", "note": "(stereo partly shown) [Compound 32]", "SSTR5 Inhib 10 uM % (inhibition of binding of SST-14 to SSTR5)": 95}, {"smiles": "COC[C@H]1OC(OCc2ccc(Cl)cc2)[C@H](NC(=O)CCCN)[C@@H](OCc2ccc(Cl)cc2)[C@@H]1O", "note": "(stereo partly shown) [Compound 33]", "SSTR5 Inhib 10 uM % (inhibition of binding of SST-14 to SSTR5)": 95}]}]}
